According to paper PMC8385015, “Tumour-on-chip microfluidic platform for assessment of drug pharmacokinetics and treatment response” (Communications Biology, 2021):
Values joined by “and” are separate entries in the source; they are usually repeats but may differ in a detail not shown here. Equal values may be shown once. Read-outs that look alike come from different tables or passages of the source.

How the values were obtained:
SW620 xenograft = assay type: in vivo; conditions: irinotecan 50 mg/kg IP day 1 weekly + vehicle PO, single animals
Protocol: We tested different weekly in vivo dosing schedules, previously evaluated in SW620 spheroids on the chip (Fig. 5a) using matched exposure profiles to those previously observed in mouse plasma.
Male immunocompromised Hsd:Athymic Nude-Foxn1nu mice (Envigo) were used for xenograft tumour implantation. […] Animals were randomised into groups of 9–15 when tumours reached a volume of ~0.30 cm[3] and 4 weekly cycles of treatment commenced.
Tumours were measured twice weekly (length × width) by bilateral Vernier calliper measurements and tumour volume calculated using Mousetrap software. Tumour growth inhibition from start of treatment was assessed by comparison of the mean change in tumour volume for the control and treated groups using the Mousetrap application and represented as TGI.

in vivo = conditions: mouse
Protocol: The samples were collected at 5, 15, 40 min, and 1, 2, 4, 6, 8 and 24 h.
Whole blood was mixed 1:5 with PBS and centrifuged at 1500×g for 3 min at 4 °C, and the plasma was extracted and frozen at –80 °C.
Using this PK model, a time course of free plasma concentrations of both drugs was simulated (Table 1).
Acidified acetonitrile ([…]) was added with the internal standard, followed by centrifugation at 3000 rpm for 10 min. Supernatant ([…]) was then removed to a clean plate and dried under nitrogen. […]
Supplementary Method 8. Pharmacokinetic models parameters used for simulations
AZD156 PK model and PK parameters used for simulations

[1] = population PK model parameter, mean

Compound: CCc1c2c(nc3ccc(OC(=O)N4CCC(N5CCCCC5)CC4)cc13)-c1cc3c(c(=O)n1C2)COC(=O)[C@]3(O)CC [Irinotecan]
- Tumour size (SW620 xenograft; day 7 (fig 5b 01)): 0.6466 cm^3 and 0.9799 cm^3 and 0.6666 cm^3 and 1.05 cm^3 and 0.9864 cm^3 and 1.225 cm^3 and 0.8608 cm^3 and 0.8801 cm^3 and 0.7589 cm^3 and 0.364 cm^3 and 1.22 cm^3 and 1.71 cm^3 and 0.9487 cm^3 and 0.9159 cm^3 and 0.8306 cm^3
- Tumour size (SW620 xenograft; day 15 (fig 5b 02)): 1.28 cm^3 and 1.619 cm^3 and 0.8212 cm^3 and 0.6967 cm^3 and 1.922 cm^3 and 1.901 cm^3 and 1.374 cm^3 and 0.7853 cm^3 and 2.931 cm^3
- Tumour size (SW620 xenograft; day 35 (fig 5b 03)): 3.4844 cm^3 and 2.894 cm^3 and 2.205 cm^3 and 2.6873 cm^3 and 2.88 cm^3 and 1.604 cm^3 and 1.682 cm^3
- Km (in vivo; female, CB-17 SCID, in vivo): 6.12 nM
- Q/(1-F4) (in vivo; female, CB-17 SCID, in vivo): 0.0574 L/h
- FM* (in vivo; [1]): 0.286
- V2/(1-F4) (in vivo; [1]): 0.0161 L
- V3/(1-F4) (in vivo; [1]): 5.26 L
- Vmax (in vivo; [1]): 0.0589 µM/h
- ka (in vivo; [1]): 0.454 h⁻¹
